This is an account of results in PubChem BioAssay (NCI).

Experiment in all cases: NCI-60 cell line screen, 48 h
Assay [1] deals with HCC-2998 colon.
Assay [2] relates to NCI-H460 lung.
In assay [3] the test system is OVCAR-4 ovarian.
The test system of assay [4] is SK-MEL-2 melanoma.
Assay [5] relates to SK-MEL-28 melanoma.
The subject of assay [6] is RXF 393 renal.
For assay [7], the system named is UACC-257 melanoma.
In assay [8] the test system is OVCAR-3 ovarian.
Assay [9] relates to ACHN renal.
In assay [10] the test system is OVCAR-5 ovarian.

Each structure is given as a SMILES string.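 All cell lines were grown in 96-well plates and treated with compound for 48 hours. GI50: concentration for 50% inhibition of growth. TGI is the concentration that stops growth completely.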

Consider `Cc1ccc(S(=O)(=O)c2scc(-c3ccccc3)c2C)cc1`, for which the TGI in assay [1], in assay [2], in assay [3], in [4], in assay [5] and in assay [6] was > 100 µM each time. For the same molecule, the TGI in assay [7], in assay [8] and in [9] was > 100 µM throughout.

On to `O=S(=O)(Oc1ccc2oc3ccccc3c2c1-c1c(OS(=O)(=O)C(F)(F)F)ccc2oc3ccccc3c12)C(F)(F)F`, for which the TGI in assay [1], in [2], in [3], in [4], in assay [5] and in assay [6] was > 100 µM each time. The TGI in assay [7], in assay [10], in [8] and in assay [9] was > 100 µM in each case.

In the case of `FC(F)(F)c1ccc(-c2nc(-c3nc4cc(Cl)c(Cl)cc4[nH]3)c3ccccn23)cc1`, the GI50 in assay [1] is > 100 µM; in assay [3] it was 1870 nM; in assay [4], 9.49 µM; in [6] it was 2260 nM; in assay [7], > 100 µM; in [10], > 100 µM. The GI50 in [8] was 3.74 µM; in [9], 3.9 µM. Further, the TGI in assay [1] was > 100 µM; in [3], 5.41 µM; in assay [4], 52.2 µM; in assay [6] it was 5.99 µM; in [7] it was > 100 µM; in assay [10], > 100 µM. In addition, the TGI in assay [8] is > 100 µM; in [9], 28.5 µM.

As to `CN(C)CCNc1ccc(C(=O)NCCCN(C)CCCNC(=O)c2ccc(NCCN(C)C)c3c(=O)c4ccccc4[nH]c23)c2[nH]c3ccccc3c(=O)c12`, the TGI was found to be 0.135 µM in [1]; 1.43 µM in [2]; 0.211 µM in [3]; 0.414 µM in [4]; 0.604 µM in assay [5]; 0.912 µM in assay [6]. Besides, the TGI in [7] stood at 3.25 µM; in [10], 1.1 µM; in assay [8], 7.5 µM; in assay [9], 6.24 µM.

`CN(C)CC(/C(Cc1ccccc1)=N\NC(=O)C[n+]1ccccc1)c1ccccc1` (stereo not drawn): the TGI in [1], in assay [2], in assay [3], in assay [4], in assay [5] and in assay [6] was > 100 µM throughout. Moreover, the TGI in assay [7], in assay [10], in assay [8] and in assay [9] was > 100 µM in each case.

Turning to `COc1c2cc([N+](=O)[O-])cc1CNC(=O)CN1CCOCCOCCN(CCOCCOCC1)CC(=O)NC2`, the TGI in assay [1], in assay [2], in assay [3], in assay [4], in [5] and in assay [6] was > 100 µM in each case. The TGI in assay [7], in assay [10], in [8] and in assay [9] was > 100 µM in each case.

For the molecule `CCCCNC1CCC2(SCCS2)c2[nH]c3ccccc3c21` (stereo not drawn), the TGI was 38.8 µM in assay [1]; > 100 µM in [2]; > 100 µM in assay [3]; > 100 µM in assay [5]; > 64.3 µM in assay [6]; 15.1 µM in assay [7]. Also, the TGI is > 100 µM in [10], 46.7 µM in assay [8] and > 100 µM in [9].

As to `OCC1OC(c2scc3c(=S)nc[nH]c23)C(O)C1O` (stereo not drawn), the TGI in assay [1] was > 97.2 µM; in [2], > 100 µM; in [3], 38.1 µM; in assay [4], > 65.6 µM; in [5] it was > 100 µM; in [6], > 100 µM. The TGI in [7] was > 46.4 µM; in assay [10], > 100 µM; in assay [8], 8.33 µM; in assay [9] it was > 67.8 µM.

On to `CC[C@@]1(O)C(=O)OCc2c1cc1n(c2=O)Cc2c-1nc1ccccc1c2/C=N\NC(=O)C(N)CC(C)C` (stereo partly drawn), for which the TGI in assay [1] is 6.17 µM; in [2], 1.26 µM; in [3], > 100 µM; in assay [4] it was 2.99 µM; in assay [5], > 100 µM; in [6], 0.154 µM. In addition, the results for the TGI in assay [7], in assay [10] and in assay [8] were 1.81 µM, > 68.6 µM and 2.3 µM, respectively.

`CCOc1ccc2nc(NC(=O)C(=O)C(C(=O)c3ccccc3-c3ccccc3)C3OC(=O)c4ccccc43)sc2c1` (stereo not drawn): the TGI is 33.1 µM in assay [1]; 42.7 µM in [2]; > 100 µM in assay [3]; 60.1 µM in [4]; 54.2 µM in assay [5]; 18.1 µM in assay [6]. The TGI in [7] is > 96 µM; in assay [10], > 100 µM; in assay [8], 89.8 µM; in assay [9] it was > 100 µM.

For `CCOC(=O)c1cnc(-n2[nH]c(C)c(CCO)c2=O)[nH]c1=O`, the TGI in [1], in assay [2], in [3], in assay [4], in assay [5] and in [6] was > 100 µM each time. Also, the TGI in [7], in [10], in assay [8] and in [9] was > 100 µM throughout.

For `Cc1ccc(S(=O)(=O)N/N=C/c2oc(-c3cccc([N+](=O)[O-])c3)c(-c3cccc([N+](=O)[O-])c3)c2[N+](=O)[O-])cc1`, the TGI in assay [1] was > 100 µM; in [2], > 100 µM; in [3] it was > 100 µM; in [4] it was 76.9 µM; in assay [5] it was > 100 µM; in [6] it was 90.1 µM. Also, the TGI in [7], in [10], in assay [8] and in assay [9] was > 100 µM each time.

As to `OCCOc1ccc(-c2cc(-c3ccccn3)nc(-c3ccccn3)c2)cc1`, the TGI was > 18.4 µM in assay [1]; 3.69 µM in assay [2]; > 100 µM in assay [3]; 3.48 µM in assay [4]; > 100 µM in [5]; 0.85 µM in assay [6]. Also, the TGI in assay [7] stood at 12.9 µM; in [10] it was 12.1 µM; in [8], 6.67 µM; in assay [9], 3.78 µM.
